Experimental data as given in PubChem BioAssay (NCI).
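Method: 48-hour compound exposure of cells in 96-well plates, five concentrations, linear interpolation of endpoints. At the TGI there is no net growth.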

What was measured:
Assay in all cases: NCI-60 cell line screen, 48 h
SK-MEL-2 melanoma = system: SK-MEL-2 melanoma
OVCAR-4 ovarian = system: OVCAR-4 ovarian
HOP-62 NSCLC = system: HOP-62 NSCLC
SNB-19 CNS = system: SNB-19 CNS
MCF7 breast = system: MCF7 breast
ACHN renal = system: ACHN renal
HOP-92 NSCLC = system: HOP-92 NSCLC
KM12 colon = system: KM12 colon
MDA-N = system: MDA-N
A498 renal = system: A498 renal
UO-31 renal = system: UO-31 renal
SK-MEL-5 melanoma = system: SK-MEL-5 melanoma
M14 melanoma = system: M14 melanoma
786-0 renal = system: 786-0 renal
HCT-15 colon = system: HCT-15 colon
HCT-116 colon = system: HCT-116 colon
SN12C renal = system: SN12C renal
PC-3 prostate = system: PC-3 prostate
MDA-MB-231 breast = system: MDA-MB-231 breast
SK-MEL-28 melanoma = system: SK-MEL-28 melanoma
UACC-62 melanoma = system: UACC-62 melanoma
NCI-H23 lung = system: NCI-H23 lung
NCI-H226 lung = system: NCI-H226 lung
RPMI-8226 leukemia = system: RPMI-8226 leukemia
TK-10 renal = system: TK-10 renal
SK-OV-3 ovarian = system: SK-OV-3 ovarian
CAKI-1 renal = system: CAKI-1 renal
IGROV1 ovarian = system: IGROV1 ovarian
SW-620 colon = system: SW-620 colon
UACC-257 melanoma = system: UACC-257 melanoma
MDA-MB-435 = system: MDA-MB-435
SF-268 CNS = system: SF-268 CNS
SNB-75 CNS = system: SNB-75 CNS
MOLT-4 leukemia = system: MOLT-4 leukemia
NCI-H522 lung = system: NCI-H522 lung
COLO 205 colon = system: COLO 205 colon
HCC-2998 colon = system: HCC-2998 colon
NCI/ADR-RES ovarian = system: NCI/ADR-RES ovarian
A549 NSCLC = system: A549 NSCLC
BT-549 breast = system: BT-549 breast
NCI-H460 lung = system: NCI-H460 lung
SF-295 CNS = system: SF-295 CNS
U251 CNS = system: U251 CNS
DU-145 prostate = system: DU-145 prostate
K-562 leukemia = system: K-562 leukemia
HT29 colon = system: HT29 colon
EKVX NSCLC = system: EKVX NSCLC
MALME-3M melanoma = system: MALME-3M melanoma
OVCAR-5 ovarian = system: OVCAR-5 ovarian
HS 578T breast = system: HS 578T breast
LOX IMVI melanoma = system: LOX IMVI melanoma
OVCAR-3 ovarian = system: OVCAR-3 ovarian
OVCAR-8 ovarian = system: OVCAR-8 ovarian
CCRF-CEM leukemia = system: CCRF-CEM leukemia
HL-60(TB) leukemia = system: HL-60(TB) leukemia
SF-539 CNS = system: SF-539 CNS
T-47D breast = system: T-47D breast
SR leukemia = system: SR leukemia

Oc1ccc2ccccc2c1NCn1nc(CCCCCCCCc2nn(CNc3c(O)ccc4ccccc34)c(=S)o2)oc1=S
TGI (SK-MEL-2 melanoma): > 100 µM | TGI (OVCAR-4 ovarian): > 100 µM | TGI (HOP-62 NSCLC): > 100 µM | TGI (SNB-19 CNS): > 100 µM | TGI (MCF7 breast): > 100 µM | TGI (ACHN renal): > 100 µM | TGI (HOP-92 NSCLC): > 100 µM | TGI (KM12 colon): > 100 µM | TGI (MDA-N): > 100 µM | TGI (A498 renal): > 100 µM | TGI (UO-31 renal): > 100 µM | TGI (SK-MEL-5 melanoma): > 100 µM | TGI (M14 melanoma): > 100 µM | TGI (786-0 renal): > 100 µM | TGI (HCT-15 colon): > 100 µM | TGI (HCT-116 colon): 79.4 µM | TGI (SN12C renal): > 100 µM | TGI (PC-3 prostate): > 100 µM | TGI (MDA-MB-231 breast): > 100 µM | TGI (SK-MEL-28 melanoma): > 100 µM | TGI (UACC-62 melanoma): > 100 µM | TGI (NCI-H23 lung): > 100 µM | TGI (NCI-H226 lung): > 100 µM | TGI (RPMI-8226 leukemia): > 100 µM | TGI (TK-10 renal): > 100 µM | TGI (SK-OV-3 ovarian): > 100 µM | TGI (CAKI-1 renal): > 100 µM | TGI (IGROV1 ovarian): > 100 µM | TGI (SW-620 colon): > 100 µM | TGI (UACC-257 melanoma): > 100 µM | TGI (MDA-MB-435): > 100 µM | TGI (SF-268 CNS): > 100 µM | TGI (SNB-75 CNS): > 100 µM | TGI (MOLT-4 leukemia): > 100 µM | TGI (NCI-H522 lung): > 100 µM | TGI (COLO 205 colon): > 100 µM | TGI (HCC-2998 colon): > 100 µM | TGI (NCI/ADR-RES ovarian): > 100 µM | TGI (A549 NSCLC): > 100 µM | TGI (BT-549 breast): > 100 µM | TGI (NCI-H460 lung): > 100 µM | TGI (SF-295 CNS): > 100 µM | TGI (U251 CNS): > 100 µM | TGI (DU-145 prostate): > 100 µM | TGI (K-562 leukemia): > 100 µM | TGI (HT29 colon): > 100 µM | TGI (EKVX NSCLC): > 100 µM | TGI (MALME-3M melanoma): > 100 µM | TGI (OVCAR-5 ovarian): > 100 µM

CC(=O)[C@]12OC(=O)C3=C1[C@H](CC[C@@H]3C)[C@@H](C)C[C@H]2C=C(C)C
TGI (SK-MEL-2 melanoma): 14.7 µM | TGI (HOP-62 NSCLC): 16 µM | TGI (SNB-19 CNS): 16.4 µM | TGI (HS 578T breast): 18.1 µM | TGI (LOX IMVI melanoma): 15.2 µM | TGI (MCF7 breast): 17.2 µM | TGI (ACHN renal): 15.3 µM | TGI (HOP-92 NSCLC): 7.43 µM | TGI (KM12 colon): 14.9 µM | TGI (MDA-N): 16.9 µM | TGI (A498 renal): 15.1 µM | TGI (UO-31 renal): 15.2 µM | TGI (SK-MEL-5 melanoma): 11.8 µM | TGI (M14 melanoma): 16.7 µM | TGI (786-0 renal): 15.7 µM | TGI (HCT-15 colon): 15.5 µM | TGI (HCT-116 colon): 13.4 µM | TGI (SN12C renal): 15.8 µM | TGI (PC-3 prostate): 21.1 µM | TGI (MDA-MB-231 breast): 15.6 µM | TGI (UACC-62 melanoma): 12.6 µM | TGI (OVCAR-3 ovarian): 14 µM | TGI (NCI-H23 lung): 17.9 µM | TGI (NCI-H226 lung): 16 µM | TGI (OVCAR-8 ovarian): 17 µM | TGI (RPMI-8226 leukemia): 15.5 µM | TGI (SK-OV-3 ovarian): 21.3 µM | TGI (CAKI-1 renal): 13 µM | TGI (IGROV1 ovarian): 14.2 µM | TGI (SW-620 colon): 15.3 µM | TGI (UACC-257 melanoma): 21 µM | TGI (MDA-MB-435): 16 µM | TGI (SF-268 CNS): 15.8 µM | TGI (MOLT-4 leukemia): 18.6 µM | TGI (NCI-H522 lung): 11.4 µM | TGI (COLO 205 colon): 16.1 µM | TGI (NCI/ADR-RES ovarian): 17.7 µM | TGI (CCRF-CEM leukemia): 22.6 µM | TGI (A549 NSCLC): 16.8 µM | TGI (HL-60(TB) leukemia): 16 µM | TGI (NCI-H460 lung): 17.3 µM | TGI (SF-295 CNS): 12.8 µM | TGI (U251 CNS): 14.9 µM | TGI (DU-145 prostate): 15.4 µM | TGI (SF-539 CNS): 16.5 µM | TGI (K-562 leukemia): 13.2 µM | TGI (HT29 colon): 13.9 µM | TGI (T-47D breast): 14.4 µM | TGI (SR leukemia): 16.8 µM | TGI (OVCAR-5 ovarian): 15.2 µM
